Tested on: rats
Assay: Open field test
Assay type: in vivo
Details: for duration of rearing behaviour, main effect: 5-MeO-DMT p=0.0047, cocaine p=0.0380; for duration of time spent in the centre of the arena: any treatment group; for number of rearings, main effect: cocaine p=0.0202, 5-MeO-DMT p=0.0020; for duration of time spent in the centre of the field: any of treatments
Experimental: In this instance the animals were 9 weeks old at the initiation of drug exposures and we selected just the high (20 mg/kg) dose of 5-MeO-DMT from the molecular study. […] Due to the number of behavioral paradigms to be completed by each animal we divided the study into two cohorts staggered by two weeks with 8 animals coming from each cohort to make up the 16 animals for each treatment group. 23 hours after 5-MeO-DMT administration the animals were introduced to the open field arena where they were allowed to freely explore the area for 5 mins. Following the open field test (OFT) animals were returned to their home cage for 2 hours before beginning either the elevated plus maze (EPM) or pre-pulse inhibition (PPI) testing. 24 hours after completing the OFT animals were returned to the chamber for the first session in novel object (NO1) testing. The animals were returned to their home cage for 2 hours before beginning the EPM or PPI test. 24 hours after NO1 the animals returned to the open field chamber for the second session in novel object (N02) testing. After completing N02 animals were returned to their home cage for 2 hours before they underwent the forced swim test (FST) pre-test. 24 hours later the animals were returned to the FS cylinders for the FST. Upon completion of the FST all animals were euthanized. A timeline of this experimental cohort is described in FIG. 8A.
The experiment was conducted as described for cohort 1 for the first 13 days of injections. There are a number of notable differences in experimental procedures between the two cohorts of animals to be highlighted. […] Finally, the dose of 5-MeO-DMT was reduced to 10 mg/kg. The order and timing of all the behavioral paradigms were kept constant between the cohorts. A timeline of this experimental cohort is described in FIG. 8B. Additionally, 5-MeO-DMT administrations were staggered so animals could be observed for the duration of acute drug effects and to ensure recovery prior to the next animal being injected. The typical symptoms of psychedelic drug administration outlined above were reproduced in all animals administered 5-MeO-DMT.
The open field environment provides a fast and relatively easy test that determines a variety of behavioral information ranging from general ambulatory ability to data regarding the emotionality of the subject animal. The technique enables investigation of different pharmacological compounds for anxiolytic or anxiogenic effects (Seibenhener, M. L. & M. C. Wooten (2015) Use of the Open Field Maze to Measure Locomotor and Anxiety-like Behavior in Mice. Journal of Visualized Experiments: JoVE, 52434). Rodents show distinct aversions to large, brightly lit, open and unknown environments (Choleris, E., A. W. Thomas, M. Kavaliers & F. S. Prato (2001) A detailed ethological analysis of the mouse open field test: effects of diazepam, chlordiazepoxide and an extremely low frequency pulsed magnetic field. Neuroscience & Biobehavioral Reviews, 25, 235-260). These features are incorporated in the open field test and form the basis of its use in behavioural paradigm testing. There are various parameters that can be quantified from the open field, but the primary parameter of interest is thigmotaxis, the tendency of a subject to remain close to walls as determined by measuring time spent in inner zones versus outer zones of the maze (Simon, P., R. Dupuis & J. Costentin (1994) Thigmotaxis as an index of anxiety in mice. Influence of dopaminergic transmissions. Behavioural brain research, 61, 59-64). […] For the OFT, animals were placed in the open field arena and allowed to freely explore for 5 minutes. The session was recorded and analysed by EthoVision software which quantified the total distance covered. The number of entries into and total time spent in the centre of the arena were scored by two observers blind to experimental conditions (FIG. 9).

[1] = cohort 1, cocaine+20 mg/kg 5-MeO-DMT

| Structure (SMILES) | duration of rearing behaviour, main effect (cohort 1) | duration of time spent in the centre of the arena (cohort 1) | number of rearings, main effect (cohort 1) | duration of time spent in the centre of the field (cohort 2) | number of entries into the centre of the open field (cohort 2, cocaine p=0.0448, no post hoc differences) | number of entries into the centre of the open field arena (cohort 1, 20 mg/kg 5-MeO-DMT, p=0.0139, no post hoc differences) | duration of rearing behaviour [1] | number of rearings [1] | total distance travelled (cohort 1, cocaine+20 mg/kg 5-MeO-DMT relative to cocaine+vehicle) | total distance travelled (cohort 1, saline+20 mg/kg 5-MeO-DMT relative to saline+vehicle) | number of rearings (cohort 2, 10 mg/kg 5-MeO-DMT, p=0.0031, no post hoc differences) | duration of rearings (cohort 2, 10 mg/kg 5-MeO-DMT, p=0.0837) | total distance travelled (cohort 2, saline+10 mg/kg 5-MeO-DMT relative to saline+vehicle) |
| --- | --- | --- | --- | --- | --- | --- | --- | --- | --- | --- | --- | --- | --- |
| COC(=O)[C@H]1[C@@H](OC(=O)c2ccccc2)C[C@@H]2CC[C@H]1N2C.Cl [cocaine, cocaine hydrochloride, reference compound] | affected | not affected by any treatment group | significantly affected | not changed by any of treatments | significantly affected |  |  |  |  |  |  |  |  |
| COc1ccc2[nH]cc(CCN(C)C)c2c1 [5-MeO-DMT, 5-methoxy-N,N-dimethyltryptamine] | affected | not affected by any treatment group | significantly affected | not changed by any of treatments |  | significantly affected | significant decrease in the combination group relative to control | significantly decreased the number of rearings relative to the control and cocaine-treated animals | reduction in the total distance travelled | reduction in the total distance travelled | significant effect | not the duration of rearings | specific reduction in the total distance travelled |
